Measurements as given in a melting point compilation (Tetko et al.; mined from patent text by program, amines drawn as free bases though some values may be those of a salt).

First: CCCOC(=O)C1=C(C)NC(C)=C(C(=O)N[C@H](C(=O)OCC)C(C)C)[C@@H]1c1cccc([N+](=O)[O-])c1
Second: CCOC(=O)C1=C(C)NC(N)=C(C(=O)OCC)C1c1ccccc1C(F)(F)F (stereo unspecified)
The melting point of the first is lower: 119 to 121 °C for the first, 156 °C for the second.

First: CN1CC=C(c2cccc3ccc(O)cc23)CC1
Second: O=[N+]([O-])c1cccc(OCc2ccc3ccccc3n2)c1
The melting point of the first is higher: 182 to 184 °C for the first, 109 °C for the second.

First: ClCCn1cnc2c(NC3CCCCC3)nc(Cl)nc21
Second: c1ccc(-c2cnc(NC3=NCC4(CN5CCC4CC5)O3)s2)cc1 (stereo unspecified)
The melting point of the first is lower: 150 to 152 °C for the first, 187 to 189 °C for the second.

First: CN(C)C=NC(=N[N+](=O)[O-])N(C)Cc1ccc(Cl)nc1
Second: CC(C)(C)C(=O)C(Cl)NC(=O)c1ccc(Cl)cc1 (stereo unspecified)
The melting point of the first is lower: 85 to 89 °C for the first, 132 to 135 °C for the second.

First: O=C(O)c1cc2c(-c3ccccc3)n[nH]c2s1
Second: Cn1c(CC(=O)O)c(-c2ccccc2)c2cc(Cl)ccc21
The melting point of the first is higher: greater than 260 °C for the first, 141 to 142 °C for the second.

First: COc1ccc(C#Cc2cc(OC)c(OC)cc2C=O)cc1OC
Second: COc1cc2cc3c(=O)c(C#N)c[nH]c3nc2cc1OC
The melting point of the first is lower: 148 to 149 °C for the first, greater than 300 °C for the second.

First: CNS(=O)(=O)c1cc(OC)c(OC)c(C(=O)O)c1
Second: COc1cc(C(=O)C#CC(=O)O)cc(OC)c1OC
The melting point of the first is higher: 164 to 165 °C for the first, 130 to 132 °C for the second.

First: Cc1ncsc1CCOc1ccc(NC(=O)c2cc(F)cc(N3CCOCC3)c2)c2ccccc12
Second: CCCOc1ccccc1-c1nc2nc(N3CCOCC3)ncc2c(=O)[nH]1
The melting point of the first is higher: 186 to 187 °C for the first, 176 to 177 °C for the second.

First: CC(=O)OC1CSC(Sc2ccccc2S(C)(=O)=O)C(OC(C)=O)C1OC(C)=O (stereo unspecified)
Second: CC(=O)OC1CSC(Oc2cccc(-c3cn(C)nc3C(F)(F)F)c2)C(OC(C)=O)C1OC(C)=O (stereo unspecified)
The melting point of the first is higher: 209 °C for the first, 131 to 133 °C for the second.

First: ON=C1CCn2c(-c3ccccc3)nc3c(Cl)ccc1c32
Second: COc1cccc2oc(-c3ccccc3Cl)cc(=O)c12
The melting point of the first is higher: 251 to 252 °C for the first, 148 to 149 °C for the second.

Compared with `Brc1ccc(OCc2ccccc2)cc1OCc1ccccc1`, `O=C1c2cc(OCc3ccccc3)ccc2OCC1Cn1ccnc1` (stereo unspecified) is higher in melting point: 37 to 38 °C for the first, 108 to 110 °C for the second.

First: CC(C)(C)c1ccc(N2C(=O)c3ccc4c5cccc6cccc(c7ccc(c3c47)C2=O)c65)cc1
Second: CC(C)(C)OC(=O)c1nc(-c2ccc(Cl)cc2Cl)n(-c2ccc(Cl)cc2)c1Br
The melting point of the first is higher: greater than 330 °C for the first, 198 to 200 °C for the second.

First: CCCCCCC(NS(=O)(=O)c1ccc(Cl)cc1)C(=O)Nc1ccc(CC(=O)OCC)cc1 (racemic)
Second: CCCCCCCCc1ccc(C(O)C(=O)c2ccccc2)cc1 (stereo unspecified)
The melting point of the first is higher: 110 to 112 °C for the first, 85 to 89 °C for the second.

Compared with `Cc1nc2nccc(Cl)c2cc1Br`, `CCOc1cc2cc(CO)cc(-c3ccnc(Cl)c3)c2cc1OCC` is lower in melting point: 160 to 164 °C for the first, 135 to 137 °C for the second.

Compared with `CC(C)N1c2ccccc2N(C(C)C)c2ccccc21`, `COc1cccc(OC)c1CN1C(=O)C2CCCN2c2ccccc21` (stereo unspecified) is higher in melting point: 80 to 81 °C for the first, 128 to 130 °C for the second.

First: O=C(c1ccc(-c2ccccc2)nc1)N1Cc2cccn2Cc2ccccc21
Second: O=C(O)C1Cc2c(ncn2Cc2ccccc2O)CN1C(=O)C(c1ccccc1)c1ccccc1 (stereo unspecified)
The melting point of the first is lower: 171 to 174 °C for the first, 187 to 190 °C for the second.

First: COc1c(O)cc2oc(-c3ccccc3)cc(=O)c2c1O
Second: O=C1c2cc(F)cc(F)c2-n2c1nc1ccccc1c2=O
The melting point of the first is lower: 203 to 204 °C for the first, 287 to 290 °C for the second.

First: CSc1nc(-c2ccc(F)cc2)nc(-c2ccccn2)n1
Second: Nc1nc(-c2ccc(F)cc2)cc(-c2ccc(F)cc2)n1
The melting point of the first is lower: 158 °C for the first, 207 to 210 °C for the second.

First: CC(C)(CO)c1cn2nc(NCCCN3CCC(OC(c4ccccc4)c4ccccc4)CC3)ccc2n1
Second: O=C(O)CCCC(c1ccccc1)c1ccccc1
The melting point of the first is higher: 105 to 108 °C for the first, 87 to 90 °C for the second.

First: CCOC(=O)C1=C(C)NC(COCCN)=C(C(=O)OC)C1c1cccc(Cl)c1Cl (stereo unspecified)
Second: CCN(CC)C(=O)COC(=O)c1cc(S(N)(=O)=O)c(Cl)cc1NCc1ccco1
The melting point of the first is lower: 131 to 132 °C for the first, 135 to 136 °C for the second.

First: Cc1ccc(S(=O)(=O)N2CCSC2=C(c2cccc(C)c2C)C(N)c2cccc(C)c2)cc1 (stereo unspecified)
Second: CC(c1ccc(F)cc1)n1ncc(-c2ccc(S(C)(=O)=O)cc2)c(-c2ccc(F)cc2)c1=O (stereo unspecified)
The melting point of the first is lower: 141 to 144 °C for the first, 162 to 164 °C for the second.

Compared with `COc1ccc(Cl)cc1-n1c(-c2ccc(C(F)(F)F)cc2)n[nH]c1=S`, `Cn1ncc2nn(-c3cc(C(F)(F)F)ccc3F)c(=O)c(Cl)c21` is lower in melting point: 275 to 280 °C for the first, 177 to 182 °C for the second.

First: CC(C)(C)c1cc(C(=O)Sc2ccccn2)cc(C(C)(C)C)c1
Second: COc1ccc2oc(C(=O)OCC(C)(C)C(O)C(C)(C)C)cc2c1 (stereo unspecified)
The melting point of the first is lower: 73 to 74 °C for the first, 114 °C for the second.

First: Cc1c(NC(=O)c2ccc(-c3ccc(OC(F)(F)F)cc3)cc2)ccc2cc(CN3CCCC3)cnc12
Second: Cc1cc2cc(CN3CCC(CCC(N)=O)CC3)cnc2cc1NC(=O)c1ccc(-c2ccc(F)cc2)cc1
The melting point of the first is lower: 200 to 202 °C for the first, 223 to 227 °C for the second.

First: CC(O)CC1NC(=O)c2ccccc21 (stereo unspecified)
Second: O=C1CCC(c2ccc(Cl)cc2)c2ccccc2N1 (stereo unspecified)
The melting point of the first is lower: 100 to 102 °C for the first, 209 to 212 °C for the second.

Compared with `O=c1[nH]c2sc(Cl)c(C3CC3)c2[nH]c1=O`, `CN1CCC=C(c2nc(NC=O)sc2Cl)C1` is lower in melting point: greater than 260 °C for the first, 193 °C for the second.

First: COP(=O)(OC)C(c1ccc(F)cc1)(c1ccccc1F)c1ccccc1Cl (stereo unspecified)
Second: COc1ccc2[nH]c(/C(=C/c3ccccc3)c3ccccc3)cc2c1
The melting point of the first is lower: 132 °C for the first, 144 to 147 °C for the second.

First: COc1cc2c(cc1Nc1ncc(Cl)c(N[C@H]3[C@@H](C(N)=O)[C@@H]4C=C[C@H]3C4)n1)CCN(CC(=O)N(C)C)CC2
Second: COC(=O)CCCc1cc2cc(Cl)ccc2n1S(=O)(=O)c1ccc(N2CCOCC2)nc1
The melting point of the first is lower: 109 to 127 °C for the first, 130 to 132 °C for the second.

First: COc1ccc2nc(NC(=O)C(CC3CCCC3)c3ccc(S(=O)(=O)Nc4ccccc4)cc3)sc2n1 (stereo unspecified)
Second: C=C1COc2ccc(C(C)=O)cc2C(Cc2ccccc2)(S(=O)(=O)c2ccccc2)C1 (stereo unspecified)
The melting point of the first is higher: 223 to 226 °C for the first, 131 to 132 °C for the second.

First: Cc1cc(-c2ccccc2)nn2cnnc12
Second: O=c1oc(=O)n(Cc2ccccc2)c2ncccc12
The melting point of the first is lower: 150 to 151 °C for the first, 168 °C for the second.

First: CCC1Oc2cc(C(=O)OC)ccc2NC1=O (stereo unspecified)
Second: COC(=O)c1cccc(Cc2ccc3[nH]c(-c4ccc5c(c4)OCO5)nc3c2)c1
The melting point of the first is higher: 132 to 134 °C for the first, 122 to 124 °C for the second.

First: CNc1nc(CC(=O)Nc2cccc(C(F)(F)F)c2)cs1
Second: C/C=C/CNC(=O)N1CC(Oc2cccc(C(F)(F)F)c2)C1
The melting point of the first is higher: 153 to 155 °C for the first, 127 to 128 °C for the second.

First: Cc1c(C)c2c(c(C)c1NC(=O)CC(C)(C)C)C(c1ccc(C(C)CCO)cc1)CO2 (stereo unspecified)
Second: Cc1cc(C=NNC(=O)c2ccc(O)cc2)oc1C
The melting point of the first is lower: 145 to 147 °C for the first, 251 °C for the second.

First: COc1ccc(C2(C(=O)Oc3ccc(C(=O)NO)cc3)CCCC2)cc1
Second: COc1ccc(CNC(=O)c2ccc(Cl)cc2OCC(=O)O)cc1
The melting point of the first is lower: 143 to 144 °C for the first, 178 to 179 °C for the second.

First: Nc1nc(N)c2c(ccc3[nH]c4c(c32)CCCC4)n1
Second: O=C(c1[nH]c2ccc(F)cc2c1Sc1ccccn1)N1CCCC1
The melting point of the first is higher: 300 to 303 °C for the first, 204 to 206 °C for the second.

First: CC(C)C[C@H](NS(=O)(=O)c1cccnc1)C(=O)N[C@@H](C(C)C)[C@@H](O)c1c(-c2ccccc2)c1=O
Second: CC(NS(=O)(=O)c1ccc([N+](=O)[O-])cc1[N+](=O)[O-])c1ccccc1 (stereo unspecified)
The melting point of the first is lower: 110 to 112 °C for the first, 160 to 161 °C for the second.

First: CS(=O)(=O)Nc1cc([N+](=O)[O-])ccc1Oc1ccccc1
Second: COC(=O)c1ccc(CO)cc1SCc1ccccc1
The melting point of the first is higher: 112 to 114 °C for the first, 89.5 to 92 °C for the second.

Compared with `O=C1CC(c2ccccc2)c2cc(Br)ccc2O1` (stereo unspecified), `O=C1CNc2ccccc2N1c1ccc(Cl)cc1` is higher in melting point: 117 °C for the first, 196 to 199 °C for the second.

First: Cc1cc(-n2ccc(OCC3CC3)cc2=O)sc1C(=O)NCc1ccccc1
Second: CC1C(=O)C2CC(=O)N2C1C(=O)OC(c1ccccc1)c1ccccc1 (stereo unspecified)
The melting point of the first is higher: 175 to 177 °C for the first, 132 to 133 °C for the second.

Compared with `CC1CC2C3CCC4=CC(=O)C=CC4(C)C3=CCC2(C)C1C(=O)COS(=O)(=O)c1ccc(Br)cc1` (stereo unspecified), `O=CN(O)C(CS(=O)(=O)c1ccc(Oc2ccc(OC(F)(F)F)cc2)cc1)CS(=O)(=O)N1CCC2(CC1)OCCO2` (stereo unspecified) is higher in melting point: 124 to 129 °C for the first, 178 to 179 °C for the second.

First: CCCc1ccc2nc(Cl)c(S(N)(=O)=O)n2n1
Second: COc1nc2cc(Cl)c(Cl)c(CS(C)(=O)=O)c2nc1OC
The melting point of the first is higher: 174 to 175 °C for the first, 161 to 163 °C for the second.

Compared with `CC(=O)C(=NO)C(N)=O`, `C=C(COc1ccc(C(=O)CCC(=O)O)cc1F)COc1ccc(C(C)=O)c(O)c1CCC` is higher in melting point: 96 to 97 °C for the first, 132 to 134 °C for the second.

First: COc1ccc(-c2c(C)c3cccc4c3n2CC(CCN2CCN(c3cc(C)ccn3)CC2)O4)cc1 (stereo unspecified)
Second: O=C(O)c1cccc(-c2ncn(-c3ccc(N4CCCC4)cc3)n2)c1
The melting point of the first is lower: 165 °C for the first, 263 to 265 °C for the second.

Compared with `COc1c(F)ccc2c(C3CCN(C(=O)OC(C)(C)C)CC3)noc12`, `CC(=O)N1CCN(C(C)c2ccc(-c3ccc(Cl)cc3)cc2)CC1` (stereo unspecified) is higher in melting point: 94 to 96 °C for the first, 120 to 121 °C for the second.

Compared with `CNC(=O)Nc1scc(C(C)C)c1C#N`, `C=CCOc1cc(O)c(C#N)c(Cl)c1` is lower in melting point: 179 to 181 °C for the first, 175 to 176 °C for the second.

First: c1cnc(-c2n[nH]c(-c3cnccn3)n2)cn1
Second: COc1ccc(-n2cnc(SC)n2)cc1
The melting point of the first is higher: 269 to 270 °C for the first, 54.9 °C for the second.

Compared with `COc1ccc(/C(=C\C=C\C2CC2)C(=O)O)cc1`, `Nc1ccc(N2CCOCC2)c(C(=O)O)c1` is higher in melting point: 158 to 160 °C for the first, 307 to 308 °C for the second.

First: O=[N+]([O-])c1ccc(Oc2ccc(C3(c4ccc(Oc5ccc([N+](=O)[O-])c(O)c5)cc4)C4CC5CC(C4)CC3C5)cc2)cc1O
Second: CCCCN(CCCC)CCCOc1ccc(C(=O)c2c(-c3ccccc3)n(C)c3ccc(NS(C)(=O)=O)cc23)cc1
The melting point of the first is higher: 248 to 250 °C for the first, 116 °C for the second.

First: CCOC(=O)C1=CNC2=C(C(=O)CCC2)C1c1nccs1 (stereo unspecified)
Second: O=C(CCCCCN1CCN(c2ccc3c(c2)CCC3)CC1)N1Cc2ccccc2C1
The melting point of the first is higher: 239 to 240 °C for the first, 131 °C for the second.

Compared with `Cc1ccc(O)c(C)c1O`, `Nc1ccc(CP2(=O)OCCCCO2)cc1` is higher in melting point: 102 to 104 °C for the first, 128 to 129 °C for the second.

Work on `CS(=O)(=O)NCCN1CCC(CO)CC1` yielded a melting point of 81 to 82 °C.
